Reference: patent US11944605B2, “Rapamycin analogs and uses thereof” (Janssen Pharmaceutica NV, priority 2018, dated 2024)
≈ marks a conversion by molar mass, not a printed value.

Experiments:
[1] = Solubility in 100 mM phosphate buffer (pH 7.4); assay type: physicochemical; settings: pH 7.4, aqueous buffer
Text: The compound numbers correspond to the compound numbers in Table 1.

[2] = system: pS6K1 (p-p70 S6 Kinase (Thr389)) in MCF-7 cells; experiment: AlphaLISA Ultra pS6K1 Assay; assay type: cell-based; settings: Homo sapiens, 1.5 h; MCF7 cells, 90 min
Summary of the method: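 AlphaLISA Ultra read-out (acceptor beads 2 h, then donor beads 2 h) on thawed lysates of MCF-7 cells. Cells had 20–24 h after seeding and a 2 h medium change, then 90 min of compound exposure at 0.5% final DMSO, with lysates stored at −80 °C.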

mTORC1 over mTORC2 = experiment: mTORC1 selectivity over mTORC2 at 24 hrs (Western blot based pS6K1 and pAKT assay); assay type: cell-based
[3] = system: pAKT (p-Akt 1/2/3 (Ser473)) in MCF-7 cells; experiment: AlphaLISA Ultra pAKT Assay; assay type: cell-based; settings: Homo sapiens, 1.5 h; MCF7 cells, 90 min
Experimental: AlphaLISA Ultra pAKT Assay
1. MCF-7 cells in Corning 3701 plate and incubate for 20˜24 hour.
16,000˜20,000 cells will be seeded in 36 μL medium per well.
2. Change the culture medium with fresh medium and incubate for another 90 minutes.
3. […]
4. Aspirate […] by HAMILTON, 10 μL rest per well.
5. Add 10 μL 2× lysis buffer using HAMILTON; total volume in wells is 20 μL. Allow cells to shake for 30 min. Cover plate by plastic foil and store plate at −80° C. up to analysis.
6. Thaw cell lysate at RT and transfer 10 ul lysate to assay plate (Optiplate-384).
7. Add 5 μL acceptor beads into assay plate and incubation for 2 hours
8. Add 5 μL donor beads and incubation for 2 hours
9. Count the plate by EnSpire Multimode Plate Reader

SMILES	solubility [1] [µM]	IC50 [2] [nM]	mTORC1 selective @ 24 hrs (mTORC1 over mTORC2)	IC50 [3] [nM]	selectivity for mTORC1 over mTORC2 as measured by the impact on pAKT (mTORC1 over mTORC2; extended periods of time (e.g., 24 hours))
CO[C@@H]1C[C@H](C[C@@H](C)[C@@H]2CC(=O)[C@H](C)/C=C(\C)[C@@H](O)[C@@H](OC)C(=O)[C@H](C)C[C@H](C)/C=C/C=C/C=C(\C)C(OCC3COCCOCCOCCOCCOCCO3)C[C@@H]3CC[C@@H](C)[C@@](O)(O3)C(=O)C(=O)N3CCCC[C@H]3C(=O)O2)CC[C@H]1O (stereo partly drawn) [I-1]	30 to 60 (≈ 35.3 to 70.6 µg/mL)	0.1 to 1	YES	≥ 100	–
CO[C@@H]1C[C@H](C[C@@H](C)[C@@H]2CC(=O)[C@H](C)/C=C(\C)[C@@H](O)[C@@H](OC)C(=O)[C@H](C)C[C@H](C)/C=C/C=C/C=C(\C)C(OCC3COCCOCCOCCOCCO3)C[C@@H]3CC[C@@H](C)[C@@](O)(O3)C(=O)C(=O)N3CCCC[C@H]3C(=O)O2)CC[C@H]1O (stereo partly drawn) [I-3]	30 to 60 (≈ 34 to 67.9 µg/mL)	0.1 to 1	YES	≥ 100	–
COCCOCCOC1C[C@@H]2CCC(C)C(O)(O2)C(=O)C(=O)N2CCCC[C@H]2C(=O)OC(C(C)CC2CCC(O)C(OC)C2)CC(=O)C(C)/C=C(\C)C(O)C(OC)C(=O)C(C)CC(C)/C=C/C=C/C=C/1C (stereo partly drawn) [I-17]	30 to 60 (≈ 30.1 to 60.1 µg/mL)	0.1 to 1	YES	≥ 100	–
CO[C@@H]1C[C@H](C[C@@H](C)[C@@H]2CC(=O)[C@H](C)/C=C(\C)[C@@H](O)[C@@H](OC)C(=O)[C@H](C)C[C@H](C)/C=C/C=C/C=C(\C)[C@H](OCCOCCO)C[C@@H]3CC[C@@H](C)[C@@](O)(O3)C(=O)C(=O)N3CCCC[C@H]3C(=O)O2)CC[C@H]1O [I-19]	30 to 60 (≈ 29.6 to 59.3 µg/mL)	< 0.1	YES	≥ 100	marked selectivity
COCCOCCOCCOC1C[C@@H]2CC[C@@H](C)[C@@](O)(O2)C(=O)C(=O)N2CCCC[C@H]2C(=O)O[C@H]([C@H](C)C[C@@H]2CC[C@@H](O)[C@H](OC)C2)CC(=O)[C@H](C)/C=C(\C)[C@@H](O)[C@@H](OC)C(=O)[C@H](C)C[C@H](C)/C=C/C=C/C=C/1C (stereo partly drawn) [I-27, (22E,24E,26E,27E,35R,36S,37R,38R,39S,42S,44S,46R,47R,56R)-46,56-dihydroxy-44-[(1R)-2-[(1S, 2R,3R)-3-hydroxy-2-methoxy-cyclohexyl]-1-methyl-ethyl]-47-methoxy-43-[2-[2-(2-methoxyethoxy)ethoxy]ethoxy]-35,36,37,38,48,49-hexamethyl-66,67-dioxa-57-azatricyclohexatriaconta-22, 24,26(48),27(49)-tetraene-50,51,52,53,54-pentone]	30 to 60 (≈ 31.4 to 62.8 µg/mL)	0.1 to 1	YES	≥ 100	–
CO[C@@H]1C[C@H](C[C@@H](C)[C@@H]2CC(=O)[C@H](C)/C=C(\C)[C@@H](O)[C@@H](OC)C(=O)[C@H](C)C[C@H](C)/C=C/C=C/C=C(\C)C(OCC(CO)CO)C[C@@H]3CC[C@@H](C)[C@@](O)(O3)C(=O)C(=O)N3CCCC[C@H]3C(=O)O2)CC[C@H]1O (stereo partly drawn) [I-31, (21E,23E,25E,26E,31R,32S,33R,34R,36R,38S,41S,42R,43R,53S)-42, 53-dihydroxy-40-[3-hydroxy-2-(hydroxymethyl)propoxy]-41-[(1S)-2-[(1S,3R, 4R)-4-hydroxy-3-methoxy-cyclohexyl]-1-methyl-ethyl]-43-methoxy-31,32,33,34,44,45-hexamethyl-65, 66-dioxa-54-azatricyclohexatriaconta-21,23,25(44),26(45)-tetraene-46,47,48,49,50-pentone]	> 60	0.1 to 1	YES	≥ 100	–
CO[C@@H]1C[C@H](C[C@@H](C)[C@@H]2CC(=O)[C@H](C)/C=C(\C)[C@@H](O)[C@@H](OC)C(=O)[C@H](C)C[C@H](C)/C=C/C=C/C=C(\C)C(OCCOCCOCCO)C[C@@H]3CC[C@@H](C)[C@@](O)(O3)C(=O)C(=O)N3CCCC[C@H]3C(=O)O2)CC[C@H]1OCCO (stereo partly drawn) [I-32, (21E,23E,25E,26E,36R,37S,38R,39R,40S,43S,45S,47R,48R,57R)-47, 57-dihydroxy-44-[2-[2-(2-hydroxyethoxy)ethoxy]ethoxy]-45-[(1R)-2-[(1S,2R, 3R)-3-(2-hydroxyethoxy)-2-methoxy-cyclohexyl]-1-methyl-ethyl]-48-methoxy-36,37,38,39,49,50-hexamethyl-68, 69-dioxa-58-azatricyclohexatriaconta-21,23,25(49),26(50)-tetraene-51,52,53,54,55-pentone]	> 60	0.1 to 1	YES	≥ 100	–
CO[C@@H]1C[C@H](C[C@@H](C)[C@@H]2CC(=O)[C@H](C)/C=C(\C)[C@@H](O)[C@@H](OC)C(=O)[C@H](C)C[C@H](C)/C=C/C=C/C=C(\C)C(OCCOCCOCCOCCOCCOCCO)C[C@@H]3CC[C@@H](C)[C@@](O)(O3)C(=O)C(=O)N3CCCC[C@H]3C(=O)O2)CC[C@H]1O (stereo partly drawn) [I-33, (21E,23E,25E,26E,40R,41S,42R,43R,45R,47S,50S,51R,52R, 61S)-51,6I-dihydroxy-49-[2-[2-[2-[2-[2-(2-hydroxyethoxy)ethoxy]ethoxy]ethoxy]ethoxy]ethoxy]-50-[(1S)-2-[(1S, 3R,4R)-4-hydroxy-3-methoxy-cyclohexyl]-1-methyl-ethyl]-52-methoxy-40, 41,42,43,53,54-hexamethyl-72,73-dioxa-62-azatricyclohexatriaconta-21, 23,25(53),26(54)-tetraene-55,56,57,58,59-pentone]	> 60	1 to 10	YES	≥ 100	–
CO[C@@H]1C[C@H](C[C@@H](C)[C@@H]2CC(=O)[C@H](C)/C=C(\C)[C@@H](O)[C@@H](OC)C(=O)[C@H](C)C[C@H](C)/C=C/C=C/C=C(\C)C(OCCCO)C[C@@H]3CC[C@@H](C)[C@@](O)(O3)C(=O)C(=O)N3CCCC[C@H]3C(=O)O2)CC[C@H]1O (stereo partly drawn) [I-34]	30 to 60 (≈ 28.7 to 57.5 µg/mL)	0.1 to 1	NO	≥ 100	–
CO[C@@H]1C[C@H](C[C@@H](C)[C@@H]2CC(=O)[C@H](C)/C=C(\C)[C@@H](O)[C@@H](OC)C(=O)[C@H](C)C[C@H](C)/C=C/C=C/C=C(\C)C(OCCOCCO)C[C@@H]3CC[C@@H](C)[C@@](O)(O3)C(=O)C(=O)N3CCCC[C@H]3C(=O)O2)CC[C@H]1O (stereo partly drawn) [I-37]	30 to 60 (≈ 29.6 to 59.3 µg/mL)	1 to 10	YES	≥ 100	–
CO[C@@H]1C[C@H](C[C@@H](C)[C@@H]2CC(=O)[C@H](C)/C=C(\C)[C@@H](O)[C@@H](OC)C(=O)[C@H](C)C[C@H](C)/C=C/C=C/C=C(\C)C(OCCO)C[C@@H]3CC[C@@H](C)[C@@](O)(O3)C(=O)C(=O)N3CCCC[C@H]3C(=O)O2)CC[C@H]1O (stereo partly drawn) [I-38, (21E,23E,25E,26E,30R,31S,32R,33R,35R,37S,40S,41R,42R,51S)-41, 51-dihydroxy-39-(2-hydroxyethoxy)-40-[(1S)-2-[(1S,3R,4R)-4-hydroxy-3-methoxy-cyclohexyl]-1-methyl-ethyl]-42-methoxy-30, 31,32,33,43,44-hexamethyl-62,63-dioxa-52-azatricyclohexatriaconta-21, 23,25(43),26(44)-tetraene-45,46,47,48,49-pentone]	30 to 60 (≈ 28.3 to 56.7 µg/mL)	< 0.1	NO	≥ 100	–
